Patent US6399661B1, “Oral creatine supplement and method for making same” (priority 2000, dated 2002)

Columns and labels:
[1] = acidic solutions having a pH range of from 3-6; cited from earlier work
[2] = system: human body; settings: 5 grams of creatine, 4-6 times a day, for two or more days, oral; cited from earlier work
[3] = conversion of creatine to creatinine in solutions of different pH; type: physicochemical
Source text: FIG. 1 is a graph showing rate of creatinine formation from creatine as a function of pH;
FIG. 2 is a graph showing rate of creatine loss as a function of time upon dissolution in different pH buffers; and
FIG. 3 is a chart showing time in minutes for conversion of 1 g creatine to creatinine in 2 liter at given pH.
The rate of creatinine formation from creatine as a function of pH is shown in FIG. 1 in accordance with research conducted by the inventor. In FIG. 2, the rate of creatine loss as a function of time upon dissolution in different pH buffers is shown.

## CN(CC(=O)O)C(=N)N [creatine]
[1]
  rate of conversion of creatine to creatinine: almost instantaneous
[2]
  total creatine concentration: significant increase
[3]; different pH buffers, as a function of time (FIG. 2)
  creatine remaining following dissolution in a pH buffer: the higher the pH, the higher the creatine remaining
[3]; various pH solutions, 1 g creatine in 2 liter (FIG. 3)
  rate of conversion of one gram of creatine to creatinine: substantially slowed by increasing the pH of the solution
